Experimental data as given in US20120035265A1, “COMPOSITIONS, METHODS, AND DEVICES FOR THE TREATMENT OF DYSMENORRHEA” (MediciNova, Inc., priority 2010, published 2012).

Assays:
[1] = test system: uterine muscle isolated from pregnant rats; assay: Spontaneous contractions of uterine muscle isolated from pregnant rats (organ bath); format: cell-based; settings: pregnant rat uterine muscle, mean ± standard error, 10 samples
Protocol: The experimental operation of this study was as reported by T. Kawarabayashi et al.^1 After each SD-strain rat on Day 21 of pregnancy were exsanguinated to death, the uterus was isolated to prepare up to 8 myometrial strips (about 4 mm×10 mm) in the direction of the longitudinal muscle, with the adhesion to the placenta being avoided.
Each myometrial strip was suspended in an organ bath containing 10 mL of a Locke-Ringer solution at 37° C. (aerated with 95% O2+5% CO2 gas) with a load of about 1.0 g. After the amplitude and frequency of the muscular spontaneous contractions became stable, distilled water was added. Five minutes later, the test, control, or positive control substance was added cumulatively with intervals of 5 minutes. The myometrial contractile force was delivered to a strain pressure amplifier through a force displacement transducer and recorded on a Rectigraph.
Considering the sum of the uterine contraction during 5 minutes after the addition of distilled water as 100%, the response rate to each concentration of the test, control, or positive control substance was calculated from the sum of the uterine contraction after each was added. Variable points (peaks) with amplitude (tension) of 0.2 g or lower were excluded from analysis. Samples showing any of the following events were not used for the study or excluded from analysis.
Microsoft® Excel 2000 (Microsoft Corp.) was used to sum up and analyze data and prepare tables and figures. Using a concentration-response curve obtained for each sample (X axis: log value of the concentration of the drug added, Y axis: response rate), a negative log value (pD2) of the concentration that inhibited the uterine contraction by 50% (EC50) was calculated from a straight line that connects the 2 concentrations above and below 50%, and converted to EC50.

[2] = test system: uterine muscles isolated from pregnant rabbits; assay: Spontaneous contractions of isolated uterine muscles of pregnant rabbits (organ bath); format: cell-based, rabbit
Protocol: Uterine muscles of pregnant rabbits were isolated, and experiments were conducted based on organ-bath method. After specimens of uterine muscles were suspended and spontaneous contractions was stabilized, the test substance, control substance or positive control substance was administered every 10 min, while doses were increased gradually. Efficacy of drugs was evaluated by comparing the sum of uterine contraction for 10 min before and after administration of drugs, defining the former as 100%.

[3] = test system: heart rate and mean blood pressure of dam; assay: Heart rate and mean blood pressure of dam in anesthetized pregnant rats; format: in vivo, rat; settings: intravenous cumulative dosing
Protocol: (§1) Rats were anesthetized with urethane, and experiments were conducted based on balloon method. Uterine activity and mean blood pressure of dam were led to a pressure amplifier via a pressure transducer. As for heart rate, pulse waves were led to tachometer. Recti-graphs were used for recording. The test substance, control substance, or positive control substance was administered intravenously and cumulatively every 15 minutes, while doses were increased gradually.

pregnant sheep = assay: Oxytocin-induced uterine contractions, cardiovascular system and general metabolism of pregnant sheep and their fetuses; format: in vivo
Protocol: MN-221 (0.001, 0.003, 0.01, 0.03, 0.1 and 0.3 μg/kg/min) was weighed and dissolved in physiological saline. At 123-125 days of pregnancy, sheep were infused with oxytocin (1.0 mU/kg/min) to induce uterine contractions. One hour later, MN-221 was infused for 3 consecutive hours beginning at a dose of 0.001 μg/kg/min for 30 min and increasing stepwise every 30 min to 0.3 μg/kg/min in the MN-221 group (N=4). The control received saline instead (N=4).

[4] = test system: uterine muscle isolated from pregnant rats; assay: PG F2α-induced contraction of uterine muscle isolated from pregnant rats; format: cell-based, rat; settings: Rattus norvegicus, contraction induced with 5 μg/mL of PG F2α, mean ± standard error of 10 samples
Protocol: After SD-strain rats on Day 17 of pregnancy were exsanguinated to death, the uterus was isolated to prepare up to 8 myometrial strips (about 4 mm×10 mm) per animal in the direction of the longitudinal muscle while avoiding the adhesion to the placenta. Each strip was suspended in an organ bath containing 10 mL of a modified Locke-Ringer solution at […] (aerated with 95% O2+5% CO2 gas) with a load of about 1.0 g. After the suspended sample became stable for static tension, 5 μg/mL of PG F2α or 1 mU/mL of oxytocin was added to induce contraction. After the sample was allowed to stand for at least 30 minutes to confirm stable rhythmic contraction for frequency and amplitude, the test, control, or positive control substance solution was added cumulatively at intervals of 5 minutes. After the treatment was completed, 1×10^−5 mol/L of forskolin was added to obtain maximal relaxation. The contractile force of the uterine sample was delivered via a force displacement transducer to a strain pressure amplifier and recorded on a Rectigraph.
Considering the sum of the uterine contraction for 5 minutes before treatment as 100%, the response rate to each concentration of the test, control, or positive control substance solution was calculated from the sum of uterine contraction after treatment for both PG F2α and oxytocin induced contraction. Then, the response rates obtained were used to prepare a concentration-response curve for each sample. The maximum relaxation obtained by adding forskolin was considered as a baseline. Variable points (peaks) with amplitude (tension) of […] or lower were excluded from analysis. Samples showing any of the following events were not used for the study or excluded from analysis.
Microsoft® Excel 2000 (Microsoft Corp.) was used to sum up and calculate data and prepare tables and figures. Using a concentration-response curve prepared for each sample (X axis: log value of the concentration of the substance added, Y axis: response rate), a negative log value (pEC50) of the concentration that inhibited the uterine contraction by 50% (EC50) was calculated from a straight line connecting the 2 concentrations just above and below 50%, and then converted to EC50 (unit: mol/L).

[5] = test system: uterine activity of anesthetized pregnant rats; assay: Uterine motility of anesthetized pregnant rats (balloon method); format: in vivo, rat
Protocol: as §1

[6] = inhibition of uterine motility, anesthetized pregnant rats

Question: Which EC50 ([1]; read-out: EC50) does the source give for `CN(C)C(=O)COc1ccc2c(c1)C[C@@H](NC[C@H](O)c1ccc(O)c(CCO)c1)CC2` [MN-221, (−)-bis(2-{[(2S)-2-({(2R)-2-hydroxy-2-[4-hydroxy-3-(2-hydroxyethyl)phenyl]ethyl}amino)-1,2,3,4-tetrahydronaphthalen-7-yl]oxy}-N,N-dimethyl-acetamide) monosulfate] here?
Answer: Its EC50 is 1.01 ± 0.27 nM.

Question: And the EC50 ([1]; read-out: pD2 (converted))?
Answer: Its EC50 is 0.692 nM.

Question: And the EC50 ([2]; Oryctolagus cuniculus, spontaneous contractions, pregnant rabbit uterine muscles, read-out: pD2 values (converted))?
Answer: The EC50 was 1.91 nM.

Question: What about the “inhibitory effect against oxytocin-induced contractions of isolated uterine muscles” value ([2]; as worded in Example 6 (spontaneous contraction study)) of the same compound?
Answer: The value was “demonstrated inhibitory effect”.

Question: What about the “inhibitory effect against spontaneous contractions of uterine muscles, comparison” value ([2]; pregnant rabbit uterine muscles) of the same compound?
Answer: Its value is “clearly stronger than that of HSR-81, ritodrine and terbutaline”.

Question: And the “decrease in mean blood pressure of dam” value [3]?
Answer: The value was “significantly small”.

Question: What about the “effect to increase heart rate of dam” value [3] of the same compound?
Answer: Its value is “significantly weaker than that of any of other agents”.

Question: What about the “maternal heart rate, diastolic and mean blood pressure, base excess, blood K+, blood lactate, plasma glucose, insulin, non-esterified fatty acid levels, fetal plasma glucose and insulin levels” value (pregnant sheep; MN-221 group versus control (saline) group) of the same compound?
Answer: The value was “Significant differences between the two groups”.

Question: And the “suppression of oxytocin-induced uterine contractions” value (pregnant sheep; at doses over 0.03 μg/kg/min, infusion, oxytocin 1.0 mU/kg/min, pregnant sheep)?
Answer: Its value is “more than 90%”.

Question: What about the “cardiovascular and metabolic side effects” value (pregnant sheep; pregnant sheep and fetuses, stepwise infusion 0.001 to 0.3 μg/kg/min) of the same compound?
Answer: The value was “reduced cardiovascular and metabolic side effects”.

Question: And the EC50 ([4]; read-out: EC50)?
Answer: Its EC50 is 66.4 ± 19.3 nM.

Question: What about the EC50 ([4]; read-out: pEC50 (converted)) of the same compound?
Answer: The EC50 was 51.3 nM.

Question: And the “inhibition of uterine motility” value ([5]; anesthetized pregnant rats, intravenous cumulative dosing)?
Answer: Its value is “inhibited uterine motility dose-dependently”.

Question: What about the “potency relative to HSR-81” value [5, 6] of the same compound?
Answer: Its value is “approximately 4 times”.

Question: And the “potency relative to ritodrine” value [5, 6]?
Answer: The value was “approximately 400 times”.

Question: And the “potency relative to terbutaline” value [5, 6]?
Answer: Its value is “approximately 5.5 times”.

Question: And the ED30 values ([5]; uterine motility, intravenous cumulative dosing every 15 minutes, urethane-anesthetized pregnant rats)?
Answer: The ED30 values was 0.13 µg/kg/min.
